Source: US10125134B2 (Mirati Therapeutics, Inc., priority 2016, dated 2018)
Like-named read-outs stand apart in the source and are kept apart here.

What was measured:
[1] = tested on: NCI-H358 cells (express KRas G12C), Phospho-ERK; test: Cellular inhibition of KRas G12C: Phospho-ERK in NCI-H358 cells; type: cell-based; settings: pERK(Thr202/Tyr204) normalized with GAPDH, NCI-H358 cells, 3 hours, read-out: IC50
How it was run: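 IC50 derived by 4-parameter fit of GAPDH-normalized pERK(Thr202/Tyr204) signal, as percent of DMSO control. Signal came from in-cell immunodetection with infrared secondaries after 3 h compound exposure of KRas G12C NCI-H358 cells at 0.5% DMSO.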

KRas G12C = KRas G12C (Homo sapiens, UniProt P01116, C118S/C51S/C80L/G12C); test: KRas G12C Modification Assay (LCMS detection of covalent adduct); type: binding; settings: normalized percent of control; tested at 5 μM concentration for 3 hours
How it was run: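 Covalent modification was read by reverse-phase LC/MS of intact protein after compound exposure, each reaction stopped at its time point with 25 mM acetic acid. Unmodified-protein signal, taken as percent of total, was normalised to untreated protein and reported as POC.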

Row | POC (KRas G12C) | SMILES | IC50 ([1]; Homo sapiens, NCI-H358, 3 h) | IC50 [1]
1 | C (“C”>50% POC) | C=CC(=O)N1CCN(c2nc(OC[C@@H]3CCCN3C)nc3c2CCN(c2cccc4cccc(C)c24)C3)C[C@@H]1CC#N [Example 359, 2-((S)-1-acryloyl-4-(7-(8-methylnaphthalen-1-yl)-2-(((S)-1-methylpyrrolidin-2-yl)methoxy)-5,6,7,8-tetrahydropyrido[3,4-d]pyrimidin-4-yl)piperazin-2-yl)acetonitrile] | 0.0001 to 1 µM | 
2 | C (“C”>50% POC) | C=CC(=O)N1CCN(c2nc(OC[C@@H]3CCCN3C)nc3c2CCN(c2cccc4cccc(CC)c24)C3)C[C@@H]1CC#N [Example 360, 2-[(2S)-4-[7-(8-ethyl-1-naphthyl)-2-[[(2S)-1-methylpyrrolidin-2-yl]methoxy]-6,8-dihydro-5H-pyrido[3,4-d]pyrimidin-4-yl]-1-prop-2-enoyl-piperazin-2-yl]acetonitrile] | 0.0001 to 1 µM | 
3 | C (“C”>50% POC) | C=CC(=O)N1CCN(c2nc(OC[C@@H]3CCN(C)C3)nc3c2CCN(c2cccc4cccc(Cl)c24)C3)C[C@@H]1CC#N [Example 361, 2-[(2S)-4-[7-(8-chloro-1-naphthyl)-2-[[(3R)-1-methylpyrrolidin-3-yl]methoxy]-6,8-dihydro-5H-pyrido[3,4-d]pyrimidin-4-yl]-1-prop-2-enoyl-piperazin-2-yl]acetonitrile] | 0.0001 to 1 µM | 
4 | C (“C”>50% POC) | C=CC(=O)N1CCN(c2nc(OCCN3CCCCC3)nc3c2CCN(c2cccc4cccc(Cl)c24)C3)C[C@@H]1CC#N [Example 362, 2-[(2S)-4-[7-(8-chloro-1-naphthyl)-2-[2-(1-piperidyl)ethoxy]-6,8-dihydro-5H-pyrido[3,4-d]pyrimidin-4-yl]-1-prop-2-enoyl-piperazin-2-yl]acetonitrile] | 0.0001 to 1 µM | 
5 | C (“C”>50% POC) | C=CC(=O)N1CCN(c2nc(OC[C@H]3CN(C)CCO3)nc3c2CCN(c2cccc4cccc(Cl)c24)C3)C[C@@H]1CC#N [Example 363, 2-[(2S)-4-[7-(8-chloro-1-naphthyl)-2-[[(2R)-4-methylmorpholin-2-yl]methoxy]-6,8-dihydro-5H-pyrido[3,4-d]pyrimidin-4-yl]-1-prop-2-enoyl-piperazin-2-yl]acetonitrile] | 0.0001 to 1 µM | 
6 | C (“C”>50% POC) | C=CC(=O)N1CCN(c2nc(OCCCN3C[C@@H]4C[C@H]3CO4)nc3c2CCN(c2cccc4cccc(Cl)c24)C3)C[C@@H]1CC#N [Example 365, 2-[(2S)-4-[7-(8-chloro-1-naphthyl)-2-[3-[(1S,4S)-2-oxa-5-azabicyclo[2.2.1]heptan-5-yl]propoxy]-6,8-dihydro-5H-pyrido[3,4-d]pyrimidin-4-yl]-1-prop-2-enoyl-piperazin-2-yl]acetonitrile] | 0.0001 to 1 µM | 
7 | C (“C”>50% POC) | C=CC(=O)N1CCN(c2nc(OC[C@@H]3CC(F)(F)CN3C)nc3c2CCN(c2cccc4cccc(Cl)c24)C3)C[C@@H]1CC#N [Example 366, 2-[(2S)-4-[7-(8-chloro-1-naphthyl)-2-[[(2S)-4,4-difluoro-1-methyl-pyrrolidin-2-yl]methoxy]-6,8-dihydro-5H-pyrido[3,4-d]pyrimidin-4-yl]-1-prop-2-enoyl-piperazin-2-yl]acetonitrile] | 0.0001 to 1 µM | 
8 | C (“C”>50% POC) | C=CC(=O)N1CCN(c2nc(OCCCN3CCOCC3)nc3c2CCN(c2cccc4cccc(C)c24)C3)C[C@@H]1CC#N [Example 370, (S)-2-(1-acryloyl-4-(7-(8-methylnaphthalen-1-yl)-2-(3-morpholinopropoxy)-5,6,7,8-tetrahydropyrido[3,4-d]pyrimidin-4-yl)piperazin-2-yl)acetonitrile] | 0.0001 to 1 µM | 
9 | C (“C”>50% POC) | C=CC(=O)N1CCN(c2nc(OC[C@@H]3CCCCN3C)nc3c2CCN(c2cccc4ccccc24)C3)C[C@@H]1CC#N [Example 377, 2-((S)-1-acryloyl-4-(2-(((S)-1-methylpiperidin-2-yl)methoxy)-7-(naphthalen-1-yl)-5,6,7,8-tetrahydropyrido[3,4-d]pyrimidin-4-yl)piperazin-2-yl)acetonitrile] | 0.0001 to 1 µM | 

The next lines start with the compound.

Row | SMILES | POC (KRas G12C) | IC50 ([1]; Homo sapiens, NCI-H358, 3 h) | IC50 [1]
10 | C#CC[C@H]1CN(c2nc(OC[C@@H]3CCCN3C)nc3c2CCN(c2cccc4ccccc24)C3)CCN1C(=O)C=C [Example 358, 1-[(2S)-4-[2-[[(2S)-1-methylpyrrolidin-2-yl]methoxy]-7-(1-naphthyl)-6,8-dihydro-5H-pyrido[3,4-d]pyrimidin-4-yl]-2-prop-2-ynyl-piperazin-1-yl]prop-2-en-1-one] | C (“C”>50% POC) | 0.0001 to 1 µM | 
11 | C=CC(=O)N1CCN(c2nc(OC[C@@H]3CCCN3C)nc3c2CCN(c2cccc(C)c2C(F)(F)F)C3)C[C@@H]1CC#N [Example 364, 2-[(2S)-4-[2-[[(2S)-1-methylpyrrolidin-2-yl]methoxy]-7-[3-methyl-2-(trifluoromethyl)phenyl]-6,8-dihydro-5H-pyrido[3,4-d]pyrimidin-4-yl]-1-prop-2-enoyl-piperazin-2-yl]acetonitrile] | C (“C”>50% POC) | 0.0001 to 1 µM | 
12 | CN1CCC[C@H]1COc1nc2c(c(N3CCN(C(=O)/C=C/CN4CCOCC4)[C@@H](CC#N)C3)n1)CCN(c1cccc3cccc(Cl)c13)C2 [Example 367, 2-[(2S)-4-[7-(8-chloro-1-naphthyl)-2-[[(2S)-1-methylpyrrolidin-2-yl]methoxy]-6,8-dihydro-5H-pyrido[3,4-d]pyrimidin-4-yl]-1-[(E)-4-morpholinobut-2-enoyl]piperazin-2-yl]acetonitrile] | C (“C”>50% POC) | 0.0001 to 1 µM | 
13 | C=CC(=O)N1C[C@H](C)N(c2nc(OC[C@@H]3CCCN3C)nc3c2CCN(c2cccc4ccccc24)C3)C[C@@H]1CC#N [Example 368, 2-((2S,5S)-1-acryloyl-5-methyl-4-(2-(((S)-1-methylpyrrolidin-2-yl)methoxy)-7-(naphthalen-1-yl)-5,6,7,8-tetrahydropyrido[3,4-d]pyrimidin-4-yl)piperazin-2-yl)acetonitrile] | C (“C”>50% POC) | > 1 µM | 
14 | C=CC(=O)N1CCN(c2nc(OCCCN3C[C@@H]4C[C@H]3CO4)nc3c2CCN(c2cccc4cccc(C)c24)C3)C[C@@H]1CC#N [Example 369, 2-((S)-4-(2-(3-((1 S,4S)-2-oxa-5-azabicyclo[2.2.1]heptan-5-yl)propoxy)-7-(8-methylnaphthalen-1-yl)-5,6,7,8-tetrahydropyrido[3,4-d]pyrimidin-4-yl)-1-acryloylpiperazin-2-yl)acetonitrile] | C (“C”>50% POC) | 0.0001 to 1 µM | 
15 | C=CC(=O)N1CCN(c2nc(OCCC(=O)N(C)C)nc3c2CCN(c2cccc4cccc(C)c24)C3)C[C@@H]1CC#N [Example 371, (S)-3-((4-(4-acryloyl-3-(cyanomethyl)piperazin-1-yl)-7-(8-methylnaphthalen-1-yl)-5,6,7,8-tetrahydropyrido[3,4-d]pyrimidin-2-yl)oxy)-N,N-dimethylpropanamide] | C (“C”>50% POC) | 0.0001 to 1 µM | 
16 | C/C=C/C(=O)N1CCN(c2nc(OC[C@@H]3CCCN3C)nc3c2CCN(c2cccc4cccc(C)c24)C3)C[C@@H]1CC#N [Example 372, 2-((S)-1-((E)-but-2-enoyl)-4-(7-(8-methylnaphthalen-1-yl)-2-(((S)-1-methylpyrrolidin-2-yl)methoxy)-5,6,7,8-tetrahydropyrido[3,4-d]pyrimidin-4-yl)piperazin-2-yl)acetonitrile] | C (“C”>50% POC) | 0.0001 to 1 µM | 
17 | C=CC(=O)N1CCN(c2nc(OC[C@@H]3CCCN3C)nc3c2CCN(c2ncccc2C(F)(F)F)C3)CC1CC#N (stereo partly drawn) [Example 373, 2-(1-acryloyl-4-(2-(((S)-1-methylpyrrolidin-2-yl)methoxy)-7-(3-(trifluoromethyl)pyridin-2-yl)-5,6,7,8-tetrahydropyrido[3,4-d]pyrimidin-4-yl)piperazin-2-yl)acetonitrile] | C (“C”>50% POC) | > 1 µM | 
18 | C=CC(=O)N1CCN(c2nc(OC[C@@H]3CCCN3C)nc3c2CCN(c2ccccc2CC(F)(F)F)C3)CC1CC#N (stereo partly drawn) [Example 374, 2-(1-acryloyl-4-(2-(((S)-1-methylpyrrolidin-2-yl)methoxy)-7-(2-(2,2,2-trifluoroethyl)phenyl)-5,6,7,8-tetrahydropyrido[3,4-d]pyrimidin-4-yl)piperazin-2-yl)acetonitrile] | C (“C”>50% POC) |  | > 1 µM
19 | CC#CC(=O)N1CCN(c2nc(OC[C@@H]3CCCN3C)nc3c2CCN(c2cccc4ccccc24)C3)CC1CC#N (stereo partly drawn) [Example 376, 2-(1-(but-2-ynoyl)-4-(2-(((S)-1-methylpyrrolidin-2-yl)methoxy)-7-(naphthalen-1-yl)-5,6,7,8-tetrahydropyrido[3,4-d]pyrimidin-4-yl)piperazin-2-yl)acetonitrile 2,2,2-trifluoroacetate] | C (“C”>50% POC) | 0.0001 to 1 µM | 
20 | C=CC(=O)N1C[C@@H](C)N(c2nc(OC[C@@H]3CCCN3C)nc3c2CCN(c2cccc4ccccc24)C3)C[C@@H]1CC#N [Example 378, 2-((2S,5R)-1-acryloyl-5-methyl-4-(2-(((S)-1-methylpyrrolidin-2-yl)methoxy)-7-(naphthalen-1-yl)-5,6,7,8-tetrahydropyrido[3,4-d]pyrimidin-4-yl)piperazin-2-yl)acetonitrile] | C (“C”>50% POC) | 0.0001 to 1 µM | 
21 | C=CC(=O)N1CCN(c2nc(OC[C@@H]3CCCN3C)nc3c2CCN(c2ccccc2C(F)(F)F)C3)C[C@@H]1CC#N [Example 379, 2-((S)-1-acryloyl-4-(2-(((S)-1-methylpyrrolidin-2-yl)methoxy)-7-(2-(trifluoromethyl)phenyl)-5,6,7,8-tetrahydropyrido[3,4-d]pyrimidin-4-yl)piperazin-2-yl)acetonitrile] | C (“C”>50% POC) |  | 0.0001 to 1 µM
